Test results taken from article PMC10061512 (ACS Omega, 2023).

Key:
in vitro = conditions: pig, PAMPA, pH 7.4
amyloid β 1–42 peptide = amyloid β 1–42 peptide (Homo sapiens, UniProt P05067); test: Aβ-42 self-aggregation inhibition assay; format: biochemical; conditions: read-out: inhibition of self-aggregation of Aβ1–42 monomers
eqBChE = eqBChE (Equus caballus, UniProt P81908); test: BChE inhibition and enzyme kinetics, Ellman assay; format: biochemical, equine
[1] = PAMPA–BBB
hBACE-1 [2] = target: T1, hBACE-1 (Homo sapiens, UniProt P56817); test: biochemical
hBACE-1 [3] = target: T1, hBACE-1; conditions: Lineweaver–Burk double-reciprocal plot
EeAChE = EeAChE (Electrophorus electricus, UniProt O42275); test: AChE inhibition and enzyme kinetics, Ellman assay; format: biochemical, electric eel
[4] = Lineweaver–Burk double-reciprocal plot

Chain of EeAChE (O42275 24-633): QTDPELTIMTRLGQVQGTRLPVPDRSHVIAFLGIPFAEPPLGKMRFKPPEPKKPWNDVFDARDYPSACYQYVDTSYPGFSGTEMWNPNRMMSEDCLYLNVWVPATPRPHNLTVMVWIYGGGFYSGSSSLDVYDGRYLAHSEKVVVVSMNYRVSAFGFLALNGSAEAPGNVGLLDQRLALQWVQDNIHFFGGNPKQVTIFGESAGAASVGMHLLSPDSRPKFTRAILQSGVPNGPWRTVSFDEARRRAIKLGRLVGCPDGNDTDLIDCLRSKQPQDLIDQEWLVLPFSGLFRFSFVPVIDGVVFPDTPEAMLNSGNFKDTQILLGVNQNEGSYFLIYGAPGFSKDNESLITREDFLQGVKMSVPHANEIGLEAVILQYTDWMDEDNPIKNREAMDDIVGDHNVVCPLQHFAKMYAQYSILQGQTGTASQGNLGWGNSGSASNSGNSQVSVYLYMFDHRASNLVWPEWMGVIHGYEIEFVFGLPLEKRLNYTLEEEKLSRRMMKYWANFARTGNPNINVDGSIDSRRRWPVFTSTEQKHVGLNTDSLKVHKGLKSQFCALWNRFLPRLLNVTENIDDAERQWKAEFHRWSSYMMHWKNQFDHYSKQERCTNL
Chain of eqBChE (P81908 whole entry): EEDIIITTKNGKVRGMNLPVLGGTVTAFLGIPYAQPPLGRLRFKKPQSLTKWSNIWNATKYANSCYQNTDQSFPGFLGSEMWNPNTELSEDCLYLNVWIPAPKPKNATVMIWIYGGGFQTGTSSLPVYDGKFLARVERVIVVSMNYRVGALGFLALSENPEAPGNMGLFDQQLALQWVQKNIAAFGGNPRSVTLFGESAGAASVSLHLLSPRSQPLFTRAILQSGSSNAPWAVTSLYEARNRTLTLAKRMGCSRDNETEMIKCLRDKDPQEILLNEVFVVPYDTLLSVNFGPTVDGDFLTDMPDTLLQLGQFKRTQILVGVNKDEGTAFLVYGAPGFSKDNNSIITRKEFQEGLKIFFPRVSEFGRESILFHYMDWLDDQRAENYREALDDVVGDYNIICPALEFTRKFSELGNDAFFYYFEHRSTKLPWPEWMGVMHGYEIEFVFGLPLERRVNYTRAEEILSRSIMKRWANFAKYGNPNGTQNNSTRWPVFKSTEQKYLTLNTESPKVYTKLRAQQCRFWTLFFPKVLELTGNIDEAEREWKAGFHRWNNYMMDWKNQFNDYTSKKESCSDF
T1 sequence (P56817 46-501): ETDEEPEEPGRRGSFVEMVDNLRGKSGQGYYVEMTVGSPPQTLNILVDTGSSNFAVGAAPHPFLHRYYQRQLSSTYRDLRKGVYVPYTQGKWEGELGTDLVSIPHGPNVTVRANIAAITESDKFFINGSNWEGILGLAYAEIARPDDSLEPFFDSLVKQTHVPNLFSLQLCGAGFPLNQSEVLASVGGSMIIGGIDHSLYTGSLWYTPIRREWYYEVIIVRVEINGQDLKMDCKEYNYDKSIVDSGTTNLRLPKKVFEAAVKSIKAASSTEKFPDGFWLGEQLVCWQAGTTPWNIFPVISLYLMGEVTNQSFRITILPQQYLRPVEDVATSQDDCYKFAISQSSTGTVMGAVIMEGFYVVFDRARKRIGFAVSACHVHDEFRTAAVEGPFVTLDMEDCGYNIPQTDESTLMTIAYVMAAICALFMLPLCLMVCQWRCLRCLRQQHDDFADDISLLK
Chain of amyloid β 1–42 peptide (P05067 672-713): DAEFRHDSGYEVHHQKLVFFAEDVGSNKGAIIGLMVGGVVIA

COc1cc(Cn2cc(COc3ccc4ccc(=O)oc4c3C(C)=O)nn2)cc(OC)c1 [10b, 8-Acetyl-7-((1-(3,5-dimethoxybenzyl)-1H-1,2,3-triazol-4-yl)methoxy)-2H-chromen-2-one]
Papp (in vitro): 56.8 ± 11 nm/s
inhibition at 10 µM (amyloid β 1–42 peptide): 37%
IC50 (eqBChE): 3.26 ± 0.13 µM
Ki (eqBChE): 3.5 µM
mode of inhibition, BChE (eqBChE; [4]): mixed type
prediction of CNS permeation [1]: CNS+
Ki (hBACE-1 [2]): 7 µM
mode of inhibition, BACE-1 (hBACE-1 [3]): mixed type
Ki (EeAChE): 0.27 µM
fold difference in AChE inhibition activity of 10b vs 19b (EeAChE; 10b vs 19b): 20 fold
IC50 (EeAChE; IC50 (μM) ± SD EeAChE, Ellman assay): 2.57 ± 0.31 µM
mode of inhibition, AChE (EeAChE; [4]): noncompetitive
